This is an account of results in PMC11582573, “An evolutionarily conserved metabolite inhibits biofilm formation in Escherichia coli K-12” (Nature Communications, 2024).

Assay [1] concerns the target T1, IspG (Escherichia coli, UniProt P62620).
T1 sequence (P62620 1-372): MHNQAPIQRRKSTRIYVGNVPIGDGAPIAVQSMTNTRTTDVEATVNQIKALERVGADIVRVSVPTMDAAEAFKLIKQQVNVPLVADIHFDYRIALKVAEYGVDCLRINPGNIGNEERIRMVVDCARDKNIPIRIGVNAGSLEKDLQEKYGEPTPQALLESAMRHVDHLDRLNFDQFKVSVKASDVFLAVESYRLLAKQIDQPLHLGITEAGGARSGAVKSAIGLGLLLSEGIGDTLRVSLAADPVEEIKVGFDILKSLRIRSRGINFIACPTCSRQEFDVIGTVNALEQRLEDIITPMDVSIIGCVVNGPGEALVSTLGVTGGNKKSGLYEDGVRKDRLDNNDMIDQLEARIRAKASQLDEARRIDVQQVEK
In words: protein thermal shift assay. The format is binding. The note with it: 200 µM HMBPP, 2 µM protein, 25 mM MOPS pH 7.5, 50 mM NaCl.

In assay [2] the target is T1, IspG. In words: microscale thermophoresis. The note with it: read-out: binding affinity. Background: In MST a laser heats a spot of the sample, and binding alters the fluorescence response.
In assay [3] the target is T2, H-NS (Escherichia coli, UniProt P0ACF8).
T2 construct: gene hns
T2 sequence (P0ACF8 2-137): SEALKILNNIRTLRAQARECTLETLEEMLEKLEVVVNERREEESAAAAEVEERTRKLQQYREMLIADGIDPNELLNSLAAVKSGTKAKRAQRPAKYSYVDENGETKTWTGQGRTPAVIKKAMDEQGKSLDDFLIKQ
In words: microscale thermophoresis. The note with it: read-out: binding affinity.

`C/C(=C\COP(=O)(O)OP(=O)(O)O)CO` [HMBPP]: the “shift in the melting temperature” value in assay [1] was “MEcPP and HMBPP, two known IspG binding metabolites, effectively changed the melting temperature of IspG”.
In the case of `C[C@@]1(CO)OP(=O)(O)OP(=O)(O)OC[C@H]1O` [MEcPP], the values for the Kd in assay [2] and in assay [3] were 29.4 ± 10 µM and 6.46 ± 2.17 µM, respectively.
